Results reported in patent US20180008717A1, “PHARMACEUTICAL COMPOSITION WITH ANALGESIC AND ANTI-INFLAMMATORY ACTIVITY” (priority 2016, published 2018).
Structures can show the parent of a compound that is named as a salt.

Key:
Format in all cases: in vivo
mice [1] = assay: Hot plate test (topical ointment); settings: hot plate 55 degrees Celsius, 2 percent w/w ointment topically 5 min before, cut-off 60 seconds, mean±SEM
Method: (§1) Example 3 illustrates the analgesic activity of the esters evaluated using models of providing thermal stimuli (hot plate) and chemical stimuli (formalin, capsaicin and allyl isothiocyanate) to the subjects i.e., mice.
TEST 1: Hot plate test: The hot plate test (HPT) is often used for investigation of a noxious stimulus (heat) in models of acute pain. Classically, the latency of the animal's response to the stimulus is recorded as the dependent variable.
All compounds, including BZC, were applied topically in an ointment (2 percent weight by weight based on the total weight of formulation) prepared according to the procedure described in Example 1. The ointments were applied both to the palmar and plantar surfaces of the paws of the mice by gently rubbing 5 min before analgesic activity evaluation. A corresponding amount of the ointment base were similarly applied for mice used as control animals. The mice were placed on a hot plate maintained at 55 degrees Celsius, one at a time. In this experiment, latency to respond to the heat stimulus was determined by the amount of time (in seconds) it took for a mouse to lick one of its paws. Cut-off time was fixed at 60 seconds to minimize the tissue damage that occurs during prolonged contact with heated surface. All values are expressed as the mean±standard errors of the mean (SEM) in all the tables.

mice [2] = assay: Capsaicin test (topical ointment); settings: capsaicin 6 micrograms/paw s.c., 2 percent w/w ointment topically 5 min before, observed 5 minutes, mean±SEM
Excerpt: as §1
TEST 2: Capsaicin test: Capsaicin (8-methyl-N-vanillyl-6-nonenamide), the pungent substance obtained from hot red pepper, is used to evaluate analgesic activity on mice, for compounds synthesized herein.
All compounds, including BZC, were applied topically as an ointment (2 percent weight by weight based on the total weight of formulation) prepared according to the procedure described in Example 2. The ointments were applied to the affected paws' surface by gently rubbing 5 min before analgesic activity evaluation. A corresponding amount of the ointment base were similarly applied for mice used as control animals. To evaluate analgesic activity 20 microliter of capsaicin solution in 1,2-propylene glycol (6 micrograms/paw) was injected subcutaneously under the skin of the dorsal surface of the hindpaw. Animals were observed individually for 5 minutes after capsaicin administration. The amount of time that mice spent licking the injected paw was recorded and considered as an index of pain.

mice [3] = assay: Formalin test, early phase (topical ointment); settings: 20 microliter 2 percent formalin s.c., 2 percent w/w ointment topically 5 minutes before, 0 to 5 min (early phase), mean±SEM
Method: as §1
TEST 3: Formalin test: The formalin test was used to determine the potential analgesic effects of compounds for states of persistent pain in which tissue damage occurs. The nociceptive response produced by formalin is biphasic: an early response (0 to 5 min after injection) and a late response (20 to 30 minutes after injection). These two phases can be distinguished pharmacologically: phase 1 is supposed to represent a direct chemical stimulation of nociceptors while phase 2 is thought to involve inflammation. Aiming at assessment precisely response caused by a burst of activity from pain fibers we measured the licking time as an indicator of nociception only during the first (early) phase. All compounds, including BZC, were applied topically in an ointment (2 percent weight by weight based on the total weight of formulation) prepared according to the procedure described in Example 2. The ointments were applied to the affected paws' surface by gently rubbing 5 minutes before analgesic activity evaluation. A corresponding amount of the ointment base were similarly applied for mice used as control animals. After that, 20 microliter of a 2 percent formalin solution in 0.9 percent NaCl (w/w) was injected subcutaneously into the dorsal surface of the hindpaw. The animal then was placed in an individual plexiglass cage. The time spent by the animal in licking the injected paw was measured from 0 to 5 min (early phase) after formalin administration and was considered as an indicator of pain response.

mice [4] = assay: Allyl isothiocyanate (AITC, TRPA1 agonist) test (topical ointment); settings: 20 microliters 0.5 percent AITC s.c., 2 percent w/w ointment topically 5 min before, observed 10 minutes, mean±SEM
Method: as §1
TEST 4: Allyl isothiocyanate test: The analgesic activity was evaluated by a model of chemical stimulus with the use of TRPA1 agonist—allyl isothiocyanate (AITC).
20 Microliters of 0.5 percent (w/w in 1,2-propylene glycol) AITC solution was injected subcutaneously under the skin of the dorsal surface of the right hindpaw. All compounds, including BZC, were applied topically in an ointment (2 percent weight by weight based on the total weight of formulation) prepared according to the procedure described in Example 2. The ointments were applied to the affected paws' surface by gently rubbing 5 min before analgesic activity evaluation. A corresponding amount of the ointment base were similarly applied for mice used as control animals. AITC dose was selected based on our preliminary trials and from literature citations. Animals were observed individually for 10 minutes after AITC administration. The amount of time that mice spent licking the injected paw (reaction time in seconds) was recorded and considered as an index of pain.

rat paw = assay: AITC-induced rat paw edema assay; settings: for ability to decrease the AITC-induced inflammatory state compared with ibuprofen: 2 percent w/w ointment topically; for time of inflammation maximum following AITC injection: 2 percent w/w ointment, vehicle edema maximum at 3 hours; for level of AITC-induced edema (volume of affected paw): AITC 100 microgram per paw, 2 percent w/w ointment topically 30 minutes before and at each time point, percentage of the control
Method: One-way analysis of variance (ANOVA) followed by Tukey's post hoc comparison.
The anti-inflammatory effect was determined using an AITC-induced rat paw edema assay. […] The ointments were additionally applied by gently rubbing on the affected paw at each time point.

| Compound | Reaction time (latency to lick a paw) (mice [1]) [s] | Reaction time (latency to lick a paw) (mice [1]; listed as BZC) | Licking time (mice [2]) [s] | Licking time (mice [3]) [s] | Licking time (mice [4]) [s] | Reaction time (latency to lick a paw) (mice [1]; listed as COMPOUND 4, hydrochloride) [s] | Reaction time (latency to lick a paw) (mice [1]; listed as compound 4, hydrochloride) | ability to decrease the AITC-induced inflammatory state compared with ibuprofen (rat paw) | time of inflammation maximum following AITC injection (rat paw) | Reaction time (latency to lick a paw) (mice [1]; listed as COMPOUND 2, hydrochloride) [s] | Reaction time (latency to lick a paw) (mice [1]; listed as compound 2, hydrochloride) | level of AITC-induced edema (volume of affected paw) (rat paw) [%] | Reaction time (latency to lick a paw) (mice [1]; listed as COMPOUND 1, hydrochloride) [s] | Reaction time (latency to lick a paw) (mice [1]; listed as compound 1, hydrochloride) | Reaction time (latency to lick a paw) (mice [1]; listed as COMPOUND 3, hydrochloride) [s] | Reaction time (latency to lick a paw) (mice [1]; listed as compound 3, hydrochloride) |
| --- | --- | --- | --- | --- | --- | --- | --- | --- | --- | --- | --- | --- | --- | --- | --- | --- |
| CCOC(=O)c1ccc(N)cc1 [Benzocaine, benzocaine, reference compound] | 18.3 ± 0.9 | about 18.3 sec | 28.7 ± 6.6 | 36.3 ± 2.4 | 48.0 ± 2.0 | – | – | – | – | – | – | – | – | – | – | – |
| COc1ccccc1OC(=O)CCCN.Cl [Compound 4, 2-methoxylphenyl 4-aminobutyrate hydrochloride] | – | – | 24.3 ± 3.3 | 47.6 ± 9.8 | 25.3 ± 1.5 | 16.5 ± 3.7 | about 16.5 sec | relatively comparable effects with ibuprofen | about 1.5 hours | – | – | – | – | – | – | – |
| Cc1ccc(C(C)C)c(OC(=O)CCCN)c1.Cl [Compound 2, 2-isopropyl-5-methylphenyl 4-aminobutyrate hydrochloride] | – | – | 19.7 ± 2.6 | 52.2 ± 6.6 | 20.3 ± 5.8 | – | – | exceed reference drug ibuprofen | about 1.5 hours | 21.3 ± 0.9 | about 21.3 sec | 112 | – | – | – | – |
| CC(C)[C@@H]1CC[C@@H](C)C[C@H]1OC(=O)CCCN [Compound 1, (1R,2S,5R)-2-isopropyl-5-methylcyclohexyl-4-aminobutyrate hydrochloride] | – | – | 4.3 ± 0.9 | 30.3 ± 7.4 | 2.7 ± 0.3 | – | – | exceed reference drug ibuprofen | about 1.5 hours | – | – | 136 | 30.2 ± 2.6 | about 30.2 sec | – | – |
| Cc1ccc(C(C)C)cc1OC(=O)CCCN.Cl [Compound 3, 5-isopropyl-2-methylphenyl 4-aminobutyrate hydrochloride] | – | – | 12.0 ± 1.2 | 31.1 ± 8.3 | 22.8 ± 4.3 | – | – | relatively comparable effects with ibuprofen | about 1.5 hours | – | – | – | – | – | 19.3 ± 3.8 | about 19.3 sec |
| CC(C)Cc1ccc(C(C)C(=O)O)cc1 (stereo not drawn) [ibuprofen, reference compound] | – | – | – | – | – | – | – | – | about 1.5 hours | – | – | – | – | – | – | – |
